Assays:
[1] = Cryo-TEM of dendrimersomes from glycerol-JDs, number of vesicle layers; assay type: physicochemical; details: for lamellarity of DSs (in words) / calculated percentages of unilamellar DSs in the selected images: cryo-TEM; for calculated percentages of unilamellar DSs in the selected images: JD 1 mg mL-1 in water; for Number of vesicle layers: 1 (count of vesicles): vesicles with 1 layer; for Number of vesicle layers: 2 (count of vesicles): vesicles with 2 layers; for Number of vesicle layers: 3 (count of vesicles): vesicles with 3 layers; for Number of vesicle layers: 4 (count of vesicles): vesicles with 4 layers; for Number of vesicle layers: 5 (count of vesicles): vesicles with 5 layers; for Number of vesicle layers: 6 (count of vesicles): vesicles with 6 layers; for Number of vesicle layers: 7 (count of vesicles): vesicles with 7 layers; for Number of vesicle layers: 8 (count of vesicles): vesicles with 8 layers; for Number of vesicle layers: 9 (count of vesicles): vesicles with 9 layers; for Number of vesicle layers: 10 (count of vesicles): vesicles with 10 layers; for Number of vesicle layers: 11 (count of vesicles): vesicles with 11 layers; for Number of vesicle layers: 12 (count of vesicles): vesicles with 12 layers
Description: The red numbers in FIG. 85 stand for the unilamellar while yellow numbers for multilamellar DSs. The calculated percentages of unilamellar DSs in the selected images for 2R, 2S and 2rac are 91%, 70% and 13%, respectively. Same trend was found for cryo-TEM of 1R, 1S and 1rac (FIG. 86 through FIG. 88). […] Achiral DSs are all unilamellar.
Cryogenic Transmission Electron Microscopy (Cryo-TEM). Morphologies of the Janus Dendrimer assemblies were characterized by cryo-TEM. Images were acquired on a Carl Zeiss Libra 120 microscope. Samples were prepared by plunge freezing of aqueous dispersion on plasma-treated lacey grids. The vitrified specimens were then transferred to a Gatan-910 cryoholder. The 5 images were recorded at −170° C. with an acceleration voltage of 120 kV. The concentration of JD in the aqueous solution of DSs was 1 mg mL-^1.

[2] = DLS size of dendrimersomes assembled from glycerol-JDs in water at different concentrations; assay type: physicochemical; details: for Dh (nm): size distribution by intensity
Method: Assembly of all eight glycerol-JDs was performed by injection of their ethanol solution (50 μL) into 1 mL of Milli-Q water. The size distribution and structure of resulting DSs were analyzed by DLS (FIG. 84) and cryo-TEM. […] In a certain concentration range the size of DSs increased with the concentration of JDs injected in water or buffer. […] The dimensions of the assemblies were identical when the concentrations of the JDs in water were identical. Sizes of assemblies from mixtures of 1R and 1S in different ratios (1:3, 1:1 and 3:1), were also identical (FIG. 84). […] With the exception of the rotation of polarized light, the physical properties of enantiomers and their racemic mixtures must be identical.
Dynamic light scattering (DLS). Hydrodynamic diameters (Dh) of the self-assemblies of dendrimer molecules and their size distributions were measured on a Malvern Instruments particle sizer (Zetasizer® Nano S, Malvern Instruments, UK) equipped with 4 mW He—Ne laser (633 nm) and avalanche photodiode positioned at […] to the beam and temperature controlled cuvette holder. Experiments were performed at 25° C. in triplicate. The distribution of radius was intensity.

Number of vesicle layers: 1 (count of vesicles) [1] | Number of vesicle layers: 2 (count of vesicles) [1] | Number of vesicle layers: 3 (count of vesicles) [1] | Number of vesicle layers: 4 (count of vesicles) [1] | Number of vesicle layers: 5 (count of vesicles) [1] | Number of vesicle layers: 6 (count of vesicles) [1] | PDI ([2]; JD 0.025 mg·mL−1 in water) | Dh (nm) ([2]; JD 0.025 mg·mL−1 in water) | PDI ([2]; JD 0.05 mg·mL−1 in water) | Dh (nm) ([2]; JD 0.05 mg·mL−1 in water) | PDI ([2]; JD 0.1 mg·mL−1 in water) | Dh (nm) ([2]; JD 0.1 mg·mL−1 in water) | PDI ([2]; JD 0.15 mg·mL−1 in water) | Dh (nm) ([2]; JD 0.15 mg·mL−1 in water) | PDI ([2]; JD 0.2 mg·mL−1 in water) | Dh (nm) ([2]; JD 0.2 mg·mL−1 in water) | PDI ([2]; JD 0.25 mg·mL−1 in water) | Dh (nm) ([2]; JD 0.25 mg·mL−1 in water) | PDI ([2]; JD 0.3 mg·mL−1 in water) | Dh (nm) ([2]; JD 0.3 mg·mL−1 in water) | further results | Compound
63 | 13 | 9 | 1 | 0 | 0 | 0.465 | 106 | 0.422 | 107 | 0.291 | 112 | 0.212 | 119 | 0.203 | 128 | 0.223 | 132 | 0.235 | 153 | lamellarity of DSs (in words) [1]: unilamellar DSs predominantly; calculated percentages of unilamellar DSs in the selected images [1]: 70%; Number of vesicle layers: 7 (count of vesicles) [1]: 1; Number of vesicle layers: 8 (count of vesicles) [1]: 1; Number of vesicle layers: 9 (count of vesicles) [1]: 0; Number of vesicle layers: 10 (count of vesicles) [1]: 3; Number of vesicle layers: 11 (count of vesicles) [1]: 1; Number of vesicle layers: 12 (count of vesicles) [1]: 0; PDI ([2]; JD 0.4 mg·mL−1 in water): 0.205; Dh (nm) ([2]; JD 0.4 mg·mL−1 in water): 165 nm; PDI ([2]; JD 0.5 mg·mL−1 in water): 0.295; Dh (nm) ([2]; JD 0.5 mg·mL−1 in water): 288 nm | CCCCCCCCCCCCOc1cc(OCCCCCCCCCCCC)cc(C(=O)OCC(C)(COC(=O)c2cc(OCCCCCCCCCCCC)cc(OCCCCCCCCCCCC)c2)C(=O)OC[C@H](COC(=O)c2cc(OCCOCCOCCOC)c(OCCOCCOCCOC)c(OCCOCCOCCOC)c2)OC(=O)c2cc(OCCOCCOCCOC)c(OCCOCCOCCOC)c(OCCOCCOCCOC)c2)c1 [Compound 2S, (3,5)-12G1-BMPA-GC-(S)-(3,4,5)-3EO-G1]
202 | 2 | 5 | 1 | 3 | 2 | 0.416 | 107 | 0.368 | 108 | 0.258 | 111 | 0.257 | 125 | 0.242 | 134 | 0.186 | 139 | 0.227 | 152 | lamellarity of DSs (in words) [1]: unilamellar DSs predominantly; calculated percentages of unilamellar DSs in the selected images [1]: 91%; Number of vesicle layers: 7 (count of vesicles) [1]: 0; Number of vesicle layers: 8 (count of vesicles) [1]: 0; Number of vesicle layers: 9 (count of vesicles) [1]: 0; Number of vesicle layers: 10 (count of vesicles) [1]: 0; Number of vesicle layers: 11 (count of vesicles) [1]: 1; Number of vesicle layers: 12 (count of vesicles) [1]: 0; PDI ([2]; JD 0.4 mg·mL−1 in water): 0.263; Dh (nm) ([2]; JD 0.4 mg·mL−1 in water): 180 nm; PDI ([2]; JD 0.5 mg·mL−1 in water): 0.497; Dh (nm) ([2]; JD 0.5 mg·mL−1 in water): 319 nm | CCCCCCCCCCCCOc1cc(OCCCCCCCCCCCC)cc(C(=O)OCC(C)(COC(=O)c2cc(OCCCCCCCCCCCC)cc(OCCCCCCCCCCCC)c2)C(=O)OC[C@@H](COC(=O)c2cc(OCCOCCOCCOC)c(OCCOCCOCCOC)c(OCCOCCOCCOC)c2)OC(=O)c2cc(OCCOCCOCCOC)c(OCCOCCOCCOC)c(OCCOCCOCCOC)c2)c1 [Compound 2R, (3,5)-12G1-BMPA-GC-(R)-(3,4,5)-3EO-G1]
7 | 6 | 2 | 1 | 1 | 3 | 0.398 | 86 | 0.277 | 109 | 0.268 | 123 | 0.232 | 128 | 0.216 | 136 | 0.238 | 142 | 0.203 | 153 | PDI ([2]; JD 0.4 mg·mL−1 in water): 0.275; Dh (nm) ([2]; JD 0.4 mg·mL−1 in water): 174 nm; PDI ([2]; JD 0.5 mg·mL−1 in water): 0.240; Dh (nm) ([2]; JD 0.5 mg·mL−1 in water): 281 nm | CCCCCCCCCCCCOc1cc(OCCCCCCCCCCCC)cc(C(=O)OCC(COC(=O)C(C)(COC(=O)c2cc(OCCOCCOCCOC)c(OCCOCCOCCOC)c(OCCOCCOCCOC)c2)COC(=O)c2cc(OCCOCCOCCOC)c(OCCOCCOCCOC)c(OCCOCCOCCOC)c2)OC(=O)c2cc(OCCCCCCCCCCCC)cc(OCCCCCCCCCCCC)c2)c1 (racemic) [Compound 1rac, (3,5)-12G1-GC-(rac)-BMPA-(3,4,5)-3EO-G1]
23 | 9 | 3 | 4 | 1 | 0 | 0.446 | 80 | 0.359 | 86 | 0.223 | 100 | 0.190 | 124 | 0.195 | 135 | 0.203 | 142 | 0.186 | 147 | PDI ([2]; JD 0.4 mg·mL−1 in water): 0.258; Dh (nm) ([2]; JD 0.4 mg·mL−1 in water): 184 nm; PDI ([2]; JD 0.5 mg·mL−1 in water): 0.438; Dh (nm) ([2]; JD 0.5 mg·mL−1 in water): 229 nm | CCCCCCCCCCCCOc1cc(OCCCCCCCCCCCC)cc(C(=O)OC[C@@H](COC(=O)C(C)(COC(=O)c2cc(OCCOCCOCCOC)c(OCCOCCOCCOC)c(OCCOCCOCCOC)c2)COC(=O)c2cc(OCCOCCOCCOC)c(OCCOCCOCCOC)c(OCCOCCOCCOC)c2)OC(=O)c2cc(OCCCCCCCCCCCC)cc(OCCCCCCCCCCCC)c2)c1 [Compound 1S, (3,5)-12G1-GC-(S)-BMPA-(3,4,5)-3EO-G1]

Reference: patent US20240252677A1, “ONE-COMPONENT DELIVERY SYSTEM FOR NUCLEIC ACIDS” (The Trustees of the University of Pennsylvania, priority 2021, published 2024)
